Data published in publication PMC11467737, “Osteocalcin binds to a GPRC6A Venus fly trap allosteric site to positively modulate GPRC6A signaling” (FASEB BioAdvances, 2024).

Legend:
GPRC6A = system: GPRC6A; design: method as in PMID 32147363; conditions: cited from earlier work
mouse model = system: mouse model; design: method as in PMID 32147363; conditions: oral or intraperitoneal administration to a mouse model; cited from earlier work
human GPRC6A isoform 2 = target: T1, human GPRC6A isoform 2 (Homo sapiens, UniProt Q5T6X5); assay: cAMP accumulation in HEK-293 cells transfected with human GPRC6A isoform 2; format: cell-based; conditions: HEK-293 transfected with GPRC6A isoform 2; presence of 1 mM calcium; 40 min; Figure 2A
T1 construct: expressed in transfected cells; host or cells: HEK-293
T1 sequence (Q5T6X5 19-751 isoform Q5T6X5-2 limits assumed): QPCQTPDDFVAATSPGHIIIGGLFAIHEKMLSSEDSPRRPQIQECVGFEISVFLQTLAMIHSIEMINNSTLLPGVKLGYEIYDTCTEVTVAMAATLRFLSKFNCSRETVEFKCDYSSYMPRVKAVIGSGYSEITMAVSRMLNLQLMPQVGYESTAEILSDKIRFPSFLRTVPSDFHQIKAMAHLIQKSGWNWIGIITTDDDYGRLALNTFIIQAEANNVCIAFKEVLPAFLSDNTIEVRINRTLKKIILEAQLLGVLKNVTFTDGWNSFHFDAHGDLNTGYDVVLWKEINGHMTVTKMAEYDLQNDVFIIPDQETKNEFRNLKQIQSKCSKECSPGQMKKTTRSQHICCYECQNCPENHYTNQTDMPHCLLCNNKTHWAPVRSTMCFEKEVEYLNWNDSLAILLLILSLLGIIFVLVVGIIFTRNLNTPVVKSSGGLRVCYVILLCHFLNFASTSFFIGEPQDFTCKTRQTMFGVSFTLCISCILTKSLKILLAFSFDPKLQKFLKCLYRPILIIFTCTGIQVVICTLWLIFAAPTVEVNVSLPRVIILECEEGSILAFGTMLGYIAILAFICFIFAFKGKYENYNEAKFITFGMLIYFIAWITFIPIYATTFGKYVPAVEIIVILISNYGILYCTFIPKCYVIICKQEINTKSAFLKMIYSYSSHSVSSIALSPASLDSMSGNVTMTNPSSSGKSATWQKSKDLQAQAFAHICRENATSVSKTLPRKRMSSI
Experimental: (§1) HEK‐293 transfected with human GPRC6A isoform cDNA plasmids cells (10^5 cells/well)[30] were cultured in 24‐well plates in DMEM supplemented with 10% fetal bovine serum and 1% penicillin/streptomycin (100 U/mL of penicillin and 100 μg/mL of streptomycin) for 48 h followed by 4 h incubation in DMEM/F12 containing 0.1% BSA and 0.5 mM IBMX to achieve quiescence and preventing cAMP degradation. Quiescent cells were treated with vehicle control, various ligands at concentration as indicated for 40 min at 37°C. Then, the reaction was stopped, and the cells lysed with 0.5 mL 0.1 N HCl. cAMP levels were measured by using Cyclic AMP EIA kit (Cayman Chemical; Ann Arbor, MA, USA) following the manufacture's protocol.

human GPRC6A isoform 3 = target: T2, human GPRC6A isoform 3 (Homo sapiens, UniProt Q5T6X5); assay: cAMP accumulation in HEK-293 cells transfected with human GPRC6A isoform 3; format: cell-based; conditions: HEK-293 transfected with GPRC6A isoform 3, 40 min
T2 construct: expressed in transfected cells; host or cells: HEK-293
T2 sequence (Q5T6X5 19-855 isoform Q5T6X5-3 limits assumed): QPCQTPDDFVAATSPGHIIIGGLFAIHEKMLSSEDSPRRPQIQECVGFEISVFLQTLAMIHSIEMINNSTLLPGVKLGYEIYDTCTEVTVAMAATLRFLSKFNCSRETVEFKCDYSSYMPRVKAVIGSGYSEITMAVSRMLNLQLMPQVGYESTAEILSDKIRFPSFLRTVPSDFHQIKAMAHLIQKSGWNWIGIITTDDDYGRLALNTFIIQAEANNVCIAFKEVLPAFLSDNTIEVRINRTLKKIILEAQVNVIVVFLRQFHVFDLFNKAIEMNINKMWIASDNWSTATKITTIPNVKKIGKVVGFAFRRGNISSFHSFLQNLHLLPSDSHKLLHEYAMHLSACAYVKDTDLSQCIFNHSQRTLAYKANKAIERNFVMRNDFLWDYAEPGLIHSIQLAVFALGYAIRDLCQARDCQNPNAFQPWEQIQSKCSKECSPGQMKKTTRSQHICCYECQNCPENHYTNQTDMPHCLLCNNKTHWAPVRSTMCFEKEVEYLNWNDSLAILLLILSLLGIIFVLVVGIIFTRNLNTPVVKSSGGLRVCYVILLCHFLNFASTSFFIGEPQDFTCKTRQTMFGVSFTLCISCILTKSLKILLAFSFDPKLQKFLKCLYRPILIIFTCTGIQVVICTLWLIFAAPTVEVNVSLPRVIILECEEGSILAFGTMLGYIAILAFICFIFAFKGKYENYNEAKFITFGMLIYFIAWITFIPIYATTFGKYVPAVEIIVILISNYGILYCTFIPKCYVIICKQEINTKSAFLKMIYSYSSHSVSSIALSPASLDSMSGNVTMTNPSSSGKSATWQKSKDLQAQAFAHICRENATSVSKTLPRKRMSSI
Experimental: as §1

human GPRC6A isoform 1 [1] = target: T3, human GPRC6A isoform 1 (Homo sapiens, UniProt Q5T6X5); assay: cAMP accumulation in HEK-293 cells transfected with human GPRC6A isoform 1 (wild-type, full length); format: cell-based; conditions: fragments at 20 nM; HEK-293 with pcDNA3-hGPRC6A; 40 min; Figure 3C / S5C
T3 construct: expressed in transfected cells; host or cells: HEK-293, pcDNA3-hGPRC6A
T3 sequence (Q5T6X5 19-926): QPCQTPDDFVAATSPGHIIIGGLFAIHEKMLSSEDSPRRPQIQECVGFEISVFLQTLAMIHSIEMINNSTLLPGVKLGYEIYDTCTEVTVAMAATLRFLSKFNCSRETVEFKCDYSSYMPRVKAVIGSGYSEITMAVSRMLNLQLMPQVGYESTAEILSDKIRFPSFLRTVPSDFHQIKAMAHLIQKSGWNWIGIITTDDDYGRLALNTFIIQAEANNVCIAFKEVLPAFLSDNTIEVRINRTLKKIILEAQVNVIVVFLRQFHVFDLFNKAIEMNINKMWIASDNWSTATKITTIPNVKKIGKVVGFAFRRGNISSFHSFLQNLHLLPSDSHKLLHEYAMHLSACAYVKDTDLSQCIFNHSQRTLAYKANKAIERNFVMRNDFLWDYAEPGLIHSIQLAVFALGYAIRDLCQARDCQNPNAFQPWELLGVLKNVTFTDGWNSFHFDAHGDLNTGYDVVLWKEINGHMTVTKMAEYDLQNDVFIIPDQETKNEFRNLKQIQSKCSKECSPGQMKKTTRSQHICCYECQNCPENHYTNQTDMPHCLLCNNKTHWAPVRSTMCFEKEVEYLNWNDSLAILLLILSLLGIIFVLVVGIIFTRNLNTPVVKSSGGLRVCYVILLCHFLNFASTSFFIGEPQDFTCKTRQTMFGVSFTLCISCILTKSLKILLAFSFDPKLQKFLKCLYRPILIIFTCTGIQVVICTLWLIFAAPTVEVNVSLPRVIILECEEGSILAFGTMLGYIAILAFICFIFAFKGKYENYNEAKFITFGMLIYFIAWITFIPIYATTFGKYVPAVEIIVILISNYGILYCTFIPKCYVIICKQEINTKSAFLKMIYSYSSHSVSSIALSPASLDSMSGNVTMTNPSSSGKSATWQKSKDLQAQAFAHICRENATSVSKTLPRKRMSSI
Experimental: as §1

human GPRC6A isoform 1 [2] = target: T3, human GPRC6A isoform 1; assay: ERK activation (phospho-ERK/total ERK ELISA) in HEK-293 cells transfected with human GPRC6A isoform 1 (wild-type); format: cell-based; conditions: fragments at 20 nM; HEK-293 with pcDNA3-hGPRC6A; 15 min; Figure 3B / S5B
Experimental: All culture reagents were from Invitrogen (Waltham, MA, USA). Human embryonic kidney HEK‐293 cells were obtained from American Type Culture Collection and cultured in DMEM medium supplemented with 10% fetal bovine serum and 1% Penicillin/Streptomycin (P/S). Briefly, HEK‐293 cells transfected with/without human GPRC6A isoforms cDNA plasmids were starved by overnight incubation in serum‐free DMEM/F12 containing 0.1% bovine serum albumin (BSA) and stimulated with various ligands at different doses. […]

WLGAPVPYPDPLEPR
Activation of GPRC6A in vitro (GPRC6A): activate GPRC6A in vitro | Effect on fatty liver disease and insulin resistance (mouse model): improve fatty liver disease and insulin resistance

N=C(N)NCCC[C@H](N)C(=O)O [L‐Arg, L‐Arginine]
L-Arg stimulation of cAMP accumulation (human GPRC6A isoform 2): loss of L‐Arg stimulation of cAMP | L-Arg stimulation of cAMP accumulation (human GPRC6A isoform 3; presence of 1 mM calcium, Figure 2A): retained responsiveness

APVPYPDPLEPR [Ocn 8–19, synthesized human Ocn fragment, 12 aa]
cAMP accumulation by synthesized human Ocn fragments (human GPRC6A isoform 1 [1]): activated GPRC6A | ERK phosphorylation by synthesized human Ocn fragments (human GPRC6A isoform 1 [2]): activated GPRC6A

C[C@]12CC[C@H]3[C@@H](CCC4=CC(=O)CC[C@@]43C)[C@@H]1CC[C@@H]2O [testosterone]
Testosterone (T) activation, cAMP accumulation (human GPRC6A isoform 3; Figure S4): loss responsive
